Experimental findings from patent US20150274661A1, “INDOL-AMIDE COMPOUNDS AS BETA-AMYLOID INHBITORS” (Hoffmann-La Roche Inc., priority 2012, published 2015) are described below.

The experiment relates to Aβ42 secretion. Kind of experiment: Cellular γ-secretase assay (inhibition of Aβ42 secretion). The format is cell-based. Conditions: Homo sapiens, 22 h, human neuroglioma H4 cells overexpressing human APP, 22 hours incubation. The gist of the method: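 H4 neuroglioma cells overexpressing human APP were exposed to compounds (ten-point dilution series, 0.4% DMSO) for 22 h at 37°C. Secreted Aβ42 in supernatant measured by electrochemiluminescence sandwich immunoassay (ruthenylated BAP15 detection, biotinylated 6E10 capture on streptavidin beads). IC50 by nonlinear regression.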

In turn, `COCC(=O)N1CCC(c2ccc3[nH]c(C(=O)Nc4cncc(F)c4)cc3c2)C1` (stereo not shown) [Example 82, N-(5-Fluoropyridin-3-yl)-5-(1-(2-methoxyacetyl)pyrrolidin-3-yl)-1H-indole-2-carboxamide] returned an EC50 of 1930 nM. This lies in the single-digit micromolar range.
Regarding `CN1CCC(c2ccc3[nH]c(C(=O)Nc4cc(F)cc(C#N)c4)cc3c2)C1` (stereo not shown) [Example 6, N-(3-Cyano-5-fluorophenyl)-5-(1-methylpyrrolidin-3-yl)-1H-indole-2-carboxamide], the concentration for a half-maximal effect (EC50) came to 1420 nM. The EC50 values of the last two compounds are within 1.5-fold of each other.
`N#CCN1CC[C@@H](c2ccc3[nH]c(C(=O)Nc4cccc(F)c4)cc3c2)C1` [Example 109, (S)-5-(1-(Cyanomethyl)pyrrolidin-3-yl)-N-(3-fluorophenyl)-1H-indole-2-carboxamide] registered an EC50 of 472 nM.
The compound `C=CCN1CCC(c2ccc3[nH]c(C(=O)Nc4ccc(F)cc4)cc3c2)CC1` [Example 39, 5-[1-Allyl-piperidin-4-yl]-1H-indole-2-carboxylic acid (4-fluoro-phenyl)-amide] showed an EC50 of 1320 nM.

A word on the EC50: it is the concentration needed to bring the measured effect to its halfway point. A higher EC50 goes with a less potent agent.
